Literature values in patent US11737988B2, “Anti-hypertensive and cholesterol-lowering fixed-dose combination and method of manufacture” (CardioPharma, Inc., priority 2019, dated 2023).

Settings: cholesterol-lowering drugs (statins); known to those of skill in the art

| SMILES | bioavailability |
| --- | --- |
| COCc1c(C(C)C)nc(C(C)C)c(/C=C/[C@@H](O)C[C@@H](O)CC(=O)O)c1-c1ccc(F)cc1 [cerivastatin] | 60% |
| O=C(O)C[C@H](O)C[C@H](O)/C=C/c1c(C2CC2)nc2ccccc2c1-c1ccc(F)cc1 [pitvastatin] | 60% |
